In experiment [1] the target is EGFR (human) (UniProt P00533). Particulars: a431.
For experiment [2], the target named is EGFR (human) (UniProt P00533).

We go through 57 compounds from the Kinase Knowledgebase extract (Sharma et al. 2016).

Molecules are shown by their SMILES.

Sequence of EGFR (human) (P00533 whole entry, looked up): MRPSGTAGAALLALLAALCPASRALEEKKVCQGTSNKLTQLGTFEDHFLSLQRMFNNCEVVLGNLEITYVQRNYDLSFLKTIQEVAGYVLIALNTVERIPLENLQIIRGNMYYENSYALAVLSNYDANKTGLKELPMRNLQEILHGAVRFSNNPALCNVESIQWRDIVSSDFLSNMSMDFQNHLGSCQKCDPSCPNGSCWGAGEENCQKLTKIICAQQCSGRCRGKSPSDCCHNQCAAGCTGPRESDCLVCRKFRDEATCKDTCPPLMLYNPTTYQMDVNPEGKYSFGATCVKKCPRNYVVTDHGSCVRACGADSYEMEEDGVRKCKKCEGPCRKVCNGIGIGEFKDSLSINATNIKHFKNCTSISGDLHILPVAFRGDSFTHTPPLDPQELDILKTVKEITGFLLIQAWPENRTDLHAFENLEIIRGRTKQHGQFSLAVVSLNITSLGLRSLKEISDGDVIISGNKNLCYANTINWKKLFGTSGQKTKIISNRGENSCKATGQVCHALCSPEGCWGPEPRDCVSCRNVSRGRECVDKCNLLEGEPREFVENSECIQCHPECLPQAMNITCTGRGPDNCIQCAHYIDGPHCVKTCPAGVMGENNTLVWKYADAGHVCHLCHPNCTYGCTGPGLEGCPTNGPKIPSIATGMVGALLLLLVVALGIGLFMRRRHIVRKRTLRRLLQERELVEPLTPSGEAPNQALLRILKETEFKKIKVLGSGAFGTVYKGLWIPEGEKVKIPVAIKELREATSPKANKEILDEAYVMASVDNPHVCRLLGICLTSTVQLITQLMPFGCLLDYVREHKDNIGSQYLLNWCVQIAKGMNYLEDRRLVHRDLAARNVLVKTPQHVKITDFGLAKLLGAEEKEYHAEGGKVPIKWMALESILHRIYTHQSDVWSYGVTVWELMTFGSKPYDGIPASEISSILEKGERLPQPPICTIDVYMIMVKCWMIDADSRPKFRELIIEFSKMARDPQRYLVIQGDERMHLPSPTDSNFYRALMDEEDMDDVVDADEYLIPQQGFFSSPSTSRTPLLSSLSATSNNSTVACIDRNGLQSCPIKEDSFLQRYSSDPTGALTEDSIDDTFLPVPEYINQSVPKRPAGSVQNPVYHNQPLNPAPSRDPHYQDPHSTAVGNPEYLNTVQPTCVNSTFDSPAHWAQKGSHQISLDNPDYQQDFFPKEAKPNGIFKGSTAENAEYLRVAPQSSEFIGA

With `Fc1cccc(COc2ccc(Nc3ncnc4ccc(-n5cc(CNCCCN6CCOCC6)c(C(F)(F)F)c5)cc34)cc2Cl)c1`, the IC50 – broadly, the concentration at which inhibition is half-maximal – in experiment [1] stood at 310 nM; in experiment [2] it was 43 nM.
The matching figures for `Fc1cccc(COc2ccc(Nc3ncnc4ccc(-c5ccc[nH]5)cc34)cc2Cl)c1`: 1080 nM and 4 nM.
The matching figures for `CS(=O)(=O)CCOCC(O)Cn1ccc(-c2ccc3ncnc(Nc4ccc(OCc5cccc(F)c5)c(Cl)c4)c3c2)c1` (centres undefined): 615 nM and 38 nM.
Turning to `O=C(Cn1ccc(-c2ccc3ncnc(Nc4ccc(OCc5cccc(F)c5)c(Cl)c4)c3c2)c1)N1CCNCC1`, the half-inhibitory concentration (IC50) in experiment [1] came out at 661 nM; in experiment [2], 41 nM.
The matching figures for `OCCN1CCOC(Cn2ccc(-c3ccc4ncnc(Nc5ccc6c(cnn6Cc6cccc(F)c6)c5)c4c3)c2)C1` (centres undefined): 477 nM and 205 nM.
Regarding `Fc1cccc(COc2ccc(Nc3ncnc4ccc(-c5ccn(CCN6CCN(CC7CC7)CC6)c5)cc34)cc2Cl)c1`, the IC50 in experiment [1] stood at 1530 nM; in experiment [2] it was 94 nM.
Turning to `Fc1cccc(Cn2ncc3cc(Nc4ncnc5ccc(-c6ccn(CCN7CCOCC7)c6)cc45)ccc32)c1`, the figures for the IC50 in experiment [1] and in experiment [2] were 100 nM and 6 nM, respectively.
With `C[C@@H]1CN(C(=O)Cn2ccc(-c3ccc4ncnc(Nc5ccc(OCc6cccc(F)c6)c(Cl)c5)c4c3)c2)C[C@H](C)N1`, the half-maximal inhibitory concentration (IC50) stood at 771 nM in experiment [1] and 12 nM in experiment [2].
On to `CC(=O)NC1CCN(C(=O)Cn2ccc(-c3ccc4ncnc(Nc5ccc(OCc6cccc(F)c6)c(Cl)c5)c4c3)c2)CC1`, for which the results for the 50% inhibitory concentration (IC50) in experiment [1] and in experiment [2] were 952 nM and 102 nM, respectively.
Regarding `O=S1(=O)CCC(NCCn2ccc(-c3ccc4ncnc(Nc5ccc(OCc6cccc(F)c6)c(Cl)c5)c4c3)c2)CC1`, the half-maximal inhibitory concentration (IC50) in experiment [1] is 1420 nM; in experiment [2], 492 nM.
For `O=C(Cn1ccc(-c2ccc3ncnc(Nc4ccc(OCc5cccc(F)c5)c(Cl)c4)c3c2)c1)N1CCOCC1`, in that order: 770 nM and 22 nM.
Consider `CCN(CC)CCNC(=O)c1cn(-c2ccc3ncnc(Nc4ccc(OCc5ccccn5)c(Cl)c4)c3c2)cc1CCO`, for which the values for the concentration for half-maximal inhibition (IC50) in experiment [1] and in experiment [2] were 8 nM and 25 nM, respectively.
`CCN(CC)CC(O)Cn1ccc(-c2ccc3ncnc(Nc4ccc5c(cnn5Cc5cccc(F)c5)c4)c3c2)c1` (centres undefined): the values for the half-inhibitory concentration (IC50) in experiment [1] and in experiment [2] were 120 nM and 20 nM, respectively.
Consider `CS(=O)(=O)CCNCc1ccn(-c2ccc3ncnc(Nc4ccc(OCc5cccc(F)c5)c(Cl)c4)c3c2)c1`, for which the values for the concentration for half-maximal inhibition (IC50) in experiment [1] and in experiment [2] were 780 nM and 50 nM, respectively.
As for `O=C(NCCN1CCCC1)c1cn(-c2ccc3ncnc(Nc4ccc(OCc5cccc(F)c5)c(Cl)c4)c3c2)cc1CCO`, the 50% inhibitory concentration (IC50) amounted to 160 nM in experiment [1] and 9 nM in experiment [2].
For `CCN(CC)CCNCc1ccc(-c2ccc3ncnc(Nc4ccc(OCc5cccc(F)c5)c(Cl)c4)c3c2)[nH]1`, in that order: 1450 nM and 18 nM.
The matching figures for `Fc1cccc(COc2ccc(Nc3ncnc4ccc(-c5ccn(CCNC6CC6)c5)cc34)cc2Cl)c1`: 747 nM and 239 nM.
Turning to `O=C(Cn1ccc(-c2ccc3ncnc(Nc4ccc(OCc5cccc(F)c5)c(Cl)c4)c3c2)c1)N1CCC(N2CCCC2)CC1`, the IC50 in experiment [1] came to 240 nM; in experiment [2] it was 106 nM.
With `CS(=O)(=O)CCNCc1ccc(-c2ccc3ncnc(Nc4ccc(OCc5cccc(F)c5)c(Cl)c4)c3c2)[nH]1`, the 50% inhibitory concentration (IC50) came out at 120 nM in experiment [1] and 2.6 nM in experiment [2].
Regarding `O=C(Cn1ccc(-c2ccc3ncnc(Nc4ccc(OCc5cccc(F)c5)c(Cl)c4)c3c2)c1)N1CCN(CCO)CC1`, the half-maximal inhibitory concentration (IC50) in experiment [1] and in experiment [2] was 51 nM throughout.
On to `OC1CCN(CC(O)Cn2ccc(-c3ccc4ncnc(Nc5ccc6c(cnn6Cc6cccc(F)c6)c5)c4c3)c2)CC1` (centres undefined), for which the values for the IC50 in experiment [1] and in experiment [2] were 1560 nM and 24 nM, respectively.
For `CS(=O)(=O)CCNCc1ccc(-c2ccc3ncnc(Nc4ccc(OCc5ccccn5)c(Cl)c4)c3c2)[nH]1`, in that order: 570 nM and 13 nM.
Take `Fc1cccc(COc2ccc(Nc3ncnc4ccc(-c5cc[nH]c5)cc34)cc2Cl)c1`: the 50% inhibitory concentration (IC50) in experiment [1] stood at 50 nM; in experiment [2], 4 nM.
Regarding `CS(=O)(=O)CCNCc1cccn1-c1ccc2ncnc(Nc3ccc(OCc4cccc(F)c4)c(Cl)c3)c2c1`, the IC50 in experiment [1] came to 270 nM; in experiment [2], 12 nM.
On to `Fc1cccc(COc2ccc(Nc3ncnc4ccc(-c5ccn(CCN6CCCCCC6)c5)cc34)cc2Cl)c1`, for which the IC50 in experiment [1] was 657 nM; in experiment [2], 27 nM.
For `CS(=O)(=O)CCN1CCOC(Cn2ccc(-c3ccc4ncnc(Nc5ccc6c(cnn6Cc6cccc(F)c6)c5)c4c3)c2)C1` (centres undefined), the concentration for half-maximal inhibition (IC50) was 572 nM in experiment [1] and 236 nM in experiment [2].
Turning to `CCN(CC)CCn1ccc(-c2ccc3ncnc(Nc4ccc5c(cnn5Cc5cccc(F)c5)c4)c3c2)c1`, the half-inhibitory concentration (IC50) turned out to be 1030 nM in experiment [1] and 6 nM in experiment [2].
`N[C@H]1CCCN(C(=O)Cn2ccc(-c3ccc4ncnc(Nc5ccc(OCc6cccc(F)c6)c(Cl)c5)c4c3)c2)C1`: the half-inhibitory concentration (IC50) was determined as 729 nM in experiment [1] and 38 nM in experiment [2].
The matching figures for `COCCNC(=O)c1cn(-c2ccc3ncnc(Nc4ccc(OCc5ccccn5)c(Cl)c4)c3c2)cc1CCO`: 200 nM and 78 nM.
The matching figures for `Fc1cccc(COc2ccc(Nc3ncnc4ccc(-n5cccc5)cc34)cc2Cl)c1`: 360 nM and 3 nM.
In the case of `OC(Cn1ccc(-c2ccc3ncnc(Nc4ccc5c(cnn5Cc5cccc(F)c5)c4)c3c2)c1)Cn1ccnn1` (centres undefined), the IC50 was found to be 400 nM in experiment [1] and 58 nM in experiment [2].
The matching figures for `O[C@H](CN1CCOCC1)Cn1ccc(-c2ccc3ncnc(Nc4ccc5c(cnn5Cc5cccc(F)c5)c4)c3c2)c1`: 749 nM and 19 nM.
For `CN1CCN(CCNC(=O)c2cn(-c3ccc4ncnc(Nc5ccc(OCc6ccccn6)c(Cl)c5)c4c3)cc2CCO)CC1`, the IC50 in experiment [1] was found to be 120 nM; in experiment [2], 108 nM.
Consider `CCN(CC)CCNC(=O)c1cn(-c2ccc3ncnc(Nc4ccc(OCc5cccc(F)c5)c(Cl)c4)c3c2)cc1CCO`, for which the values for the IC50 in experiment [1] and in experiment [2] were 680 nM and 3.6 nM, respectively.
For `Fc1cccc(COc2ccc(Nc3ncnc4ccc(-c5cc(CNCCN6CCOCC6)c[nH]5)cc34)cc2Cl)c1`, in that order: 240 nM and 8 nM.
Regarding `CCN(CC)C[C@H](O)Cn1ccc(-c2ccc3ncnc(Nc4ccc5c(cnn5Cc5cccc(F)c5)c4)c3c2)c1`, the 50% inhibitory concentration (IC50) in experiment [1] came to 220 nM; in experiment [2], 38 nM.
Regarding `OCCc1cn(-c2ccc3ncnc(Nc4ccc(OCc5cccc(F)c5)c(Cl)c4)c3c2)cc1CN1CCCCC1`, the results for the 50% inhibitory concentration (IC50) in experiment [1] and in experiment [2] were 220 nM and 54 nM, respectively.
Turning to `CCN(CC)CCNCc1ccn(-c2ccc3ncnc(Nc4ccc(OCc5cccc(F)c5)c(Cl)c4)c3c2)c1`, the IC50 was 200 nM in experiment [1] and 8 nM in experiment [2].
On to `Fc1ccc(Nc2ncnc3ccc(-n4cccc4)cc23)cc1Cl`, for which the values for the IC50 in experiment [1] and in experiment [2] were 70 nM and 61 nM, respectively.
In the case of `CN(C)[C@@H]1CCN(C(=O)Cn2ccc(-c3ccc4ncnc(Nc5ccc(OCc6cccc(F)c6)c(Cl)c5)c4c3)c2)C1`, the concentration for half-maximal inhibition (IC50) in experiment [1] was found to be 2590 nM; in experiment [2] it was 133 nM.
Turning to `Fc1cccc(COc2ccc(Nc3ncnc4ccc(-c5ccn(C[C@H]6COCCN6)c5)cc34)cc2Cl)c1`, the 50% inhibitory concentration (IC50) amounted to 562 nM in experiment [1] and 79 nM in experiment [2].
In the case of `Clc1cc(Nc2ncnc3ccc(-n4cccc4)cc23)ccc1OCc1ccccn1`, the IC50 is 10 nM in experiment [1] and 6 nM in experiment [2].
As to `OC(CNC1CC1)Cn1ccc(-c2ccc3ncnc(Nc4ccc5c(cnn5Cc5cccc(F)c5)c4)c3c2)c1` (centres undefined), the values for the IC50 in experiment [1] and in experiment [2] were 356 nM and 12 nM, respectively.
As to `O=C1OCCc2cn(-c3ccc4ncnc(Nc5ccc(OCc6ccccn6)c(Cl)c5)c4c3)cc21`, the values for the IC50 in experiment [1] and in experiment [2] were 810 nM and 8 nM, respectively.
The matching figures for `CCN(CC)CCN1CCOC(Cn2ccc(-c3ccc4ncnc(Nc5ccc6c(cnn6Cc6cccc(F)c6)c5)c4c3)c2)C1` (centres undefined): 501 nM and 248 nM.
Take `O=C(c1cn(-c2ccc3ncnc(Nc4ccc(OCc5cccc(F)c5)c(Cl)c4)c3c2)cc1CCO)N1CCCC1`: the results for the IC50 in experiment [1] and in experiment [2] were 90 nM and 15 nM, respectively.
The matching figures for `CN1CCN(Cc2cn(-c3ccc4ncnc(Nc5ccc(OCc6ccccn6)c(Cl)c5)c4c3)cc2CCO)CC1`: 210 nM and 26 nM.
For the compound `OC(CN1CCN(Cc2cccnc2)CC1)Cn1ccc(-c2ccc3ncnc(Nc4ccc5c(cnn5Cc5cccc(F)c5)c4)c3c2)c1` (centres undefined), the values for the IC50 in experiment [1] and in experiment [2] were 1290 nM and 282 nM, respectively.
As for `OCCc1cn(-c2ccc3ncnc(Nc4ccc(OCc5cccc(F)c5)c(Cl)c4)c3c2)cc1CN1CCOCC1`, the 50% inhibitory concentration (IC50) in experiment [1] worked out at 210 nM; in experiment [2] it was 4 nM.
Turning to `COCCNCc1cn(-c2ccc3ncnc(Nc4ccc(OCc5cccc(F)c5)c(Cl)c4)c3c2)cc1C(F)(F)F`, the IC50 in experiment [1] turned out to be 480 nM; in experiment [2], 49 nM.
For the compound `Fc1cccc(Cn2ncc3cc(Nc4ncnc5ccc(-c6ccn(CC7CN(CCN8CCOCC8)CCO7)c6)cc45)ccc32)c1` (centres undefined), the results for the IC50 in experiment [1] and in experiment [2] were 1300 nM and 276 nM, respectively.
For `CN1CCN(C(=O)Cn2ccc(-c3ccc4ncnc(Nc5ccc(OCc6cccc(F)c6)c(Cl)c5)c4c3)c2)CC1`, in that order: 298 nM and 6 nM.
As for `CNCCn1ccc(-c2ccc3ncnc(Nc4ccc(OCc5cccc(F)c5)c(Cl)c4)c3c2)c1`, the half-inhibitory concentration (IC50) in experiment [1] was 3420 nM; in experiment [2] it was 73 nM.
Regarding `OC(CN1CCC(N2CCCC2)CC1)Cn1ccc(-c2ccc3ncnc(Nc4ccc(OCc5cccc(F)c5)c(Cl)c4)c3c2)c1` (centres undefined), the 50% inhibitory concentration (IC50) in experiment [1] amounted to 362 nM; in experiment [2], 39 nM.
The matching figures for `CS(=O)(=O)CCNCc1cc(-c2ccc3ncnc(Nc4ccc(OCc5cccc(F)c5)c(Cl)c4)c3c2)c[nH]1`: 250 nM and 11 nM.
As to `CCN(CC)CC(O)Cn1ccc(-c2ccc3ncnc(Nc4ccc(OCc5cccc(F)c5)c(Cl)c4)c3c2)c1` (centres undefined), the half-inhibitory concentration (IC50) in experiment [1] is 350 nM; in experiment [2], 23 nM.
For `O=C(NCCN1CCOCC1)c1cn(-c2ccc3ncnc(Nc4ccc(OCc5cccc(F)c5)c(Cl)c4)c3c2)cc1CCO`, in that order: 2360 nM and 20 nM.
